Measurements taken from patent US20250179024A1, “AMYLOID AND ASSOCIATED PATHOLOGY MODULATORS AND METHODS THEREOF” (Jawaharlal Nehru Centre for Advanced Scientific Research, priority 2022, published 2025).

How the values were obtained:
Aβ oligomers = target: T1, Aβ oligomers (Homo sapiens, UniProt P05067); assay: Dot blot assay of Aβ oligomer inhibition (A11 antibody); assay type: biochemical; conditions: Aβ 10 μM, NMIs 20 μM, 4° C., 24 h
T1 construct: is a 42 amino acid proteolytic product from the amyloid precursor protein; purchased Invitrogen
T1 sequence (P05067 672-713 limits assumed): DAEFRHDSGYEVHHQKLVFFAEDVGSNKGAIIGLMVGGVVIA
Protocol: Aggregation modulation by toxic Aβ aggregates were assessed and were quantified by dot blot assay. Aβ peptide (10 μM) was dissolved in phosphate buffered saline (PBS, 10 mM, pH 7.4), incubated alone and with NMIs (20 μM) at 37° C. for 48 h. For concentration dependent inhibition, 10 μM Aβ peptide was incubated with 1, 2, 5, 10 and 20 μM of NMIs and incubated. Samples for oligomer inhibition studies were prepared by incubating Aβ alone and with NMIs at 4° C. for 24 and subjected to dot blot analysis. For dissolution studies, Aβ peptide alone was incubated in PBS for 48 h to prepare fibrils and then incubated with NMIs further for 48 h. For dot blot experiment, 5 μL of sample was blotted on activated PVDF (polyvinylidene fluoride) membrane in triplicates and air dried. The membrane was blocked with skimmed milk powder for 1 h at room temperature. The blot paper was washed with tris-buffered saline with 0.01% Tween 20 (TBST) three times for 5 min. Blot paper was treated with fibril specific OC primary antibody (Rabbit, 1:1000 dilution) overnight at 4° C. For oligomers blot A11 anti-oligomer antibody (Rabbit 1:1000) was used. […] Blots were analyzed and quantified by ImageJ software. […] The ability of NMIs (M3) to inhibit the formation of Aβ oligomers was assessed by dot blot assay. […]

[1] = Metal chelation by UV-visible absorbance and fluorescence spectra; assay type: physicochemical; conditions: NMIs 20 μM, Cu or Zn 2.5 to 40 μM
Source text: The compounds of the present disclosure (NMIs) were designed to chelate with metals (Cu and Zn) and alleviate the metal-dependent Aβ toxicity. […] The change in absorbance and fluorescence spectra of NMIs were monitored to understand the interaction with Cu(II) and Zn(II). […] The fluorescence intensity of M3 at 525 nm decreased with the increasing concentration of Cu(II) or Zn(II) (FIGS. 6(A & B)).

Aβ fibrils = target: T2, Aβ fibrils (Homo sapiens, UniProt P05067); assay: Dot blot assay of Aβ fibrillar aggregation inhibition (OC antibody); assay type: biochemical; conditions: Aβ 10 μM, NMIs 20 μM, PBS pH 7.4, 37° C., 48 h
T2 construct: is a 42 amino acid proteolytic product from the amyloid precursor protein; purchased Invitrogen
T2 sequence (P05067 672-713 limits assumed): as above
Protocol: Aggregation modulation by toxic Aβ aggregates were assessed and were quantified by dot blot assay. Aβ peptide (10 μM) was dissolved in phosphate buffered saline (PBS, 10 mM, pH 7.4), incubated alone and with NMIs (20 μM) at 37° C. for 48 h. For concentration dependent inhibition, 10 μM Aβ peptide was incubated with 1, 2, 5, 10 and 20 μM of NMIs and incubated. Samples for oligomer inhibition studies were prepared by incubating Aβ alone and with NMIs at 4° C. for 24 and subjected to dot blot analysis. For dissolution studies, Aβ peptide alone was incubated in PBS for 48 h to prepare fibrils and then incubated with NMIs further for 48 h. For dot blot experiment, 5 μL of sample was blotted on activated PVDF (polyvinylidene fluoride) membrane in triplicates and air dried. The membrane was blocked with skimmed milk powder for 1 h at room temperature. The blot paper was washed with tris-buffered saline with 0.01% Tween 20 (TBST) three times for 5 min. Blot paper was treated with fibril specific OC primary antibody (Rabbit, 1:1000 dilution) overnight at 4° C. For oligomers blot A11 anti-oligomer antibody (Rabbit 1:1000) was used. Blot was washed thrice with TBST and treated with HRP-conjugated antirabbit secondary antibody (1:5000 dilutions) for 1 h at room temperature. The bolt was washed thrice for 5 min with TBST and developed with ECL reagent (Biorad) and imaged with ChemiDoc BioRad gel documentation system in autoexposure mode. Blots were analyzed and quantified by ImageJ software. The ability of the NMIs, the compounds of the present disclosure M1-M4 to inhibit Aβ aggregation and dissolve the preformed fibrillar aggregates was evaluated by dot blot assay as explained in Example 2 above. Aβ (10 μM) was incubated alone and with NMIs (20 μM) in phosphate buffer saline (PBS, 10 mM and pH 7.4) at 37° C. for 48 h to form Aβ fibrillar aggregates. The samples were blotted and probed with fibril-selective OC antibody (rabbit anti-human amyloid fibrils). […] M3 was further assessed for inhibitory effect at lower concentrations. […] It has been observed that the oligomers are a highly toxic species compared to Aβ fibrillar aggregates. The ability of NMIs (M3) to inhibit the formation of Aβ oligomers was assessed by dot blot assay. Aβ peptide (10 μM) was incubated with NMIs at 4° C. for 24 h followed by probing with A11 oligomer-specific antibody. […] Native PAGE and western blot analysis was carried out to understand the size distribution of Aβ aggregated species. […] In order to analyse the higher order aggregates not permeable in the gel matrix and the morphological characteristics, Aβ samples were subjected to atomic force microscopy (AFM) imaging.

Aβ = target: T3, Aβ (Homo sapiens, UniProt P05067); assay: AFM imaging of Aβ samples; conditions: Aβ 10 μM, NMIs 20 μM; FIG. 1C
T3 construct: is a 42 amino acid proteolytic product from the amyloid precursor protein; purchased Invitrogen
T3 sequence (P05067 672-713 limits assumed): as above
Protocol: AFM imaging was done to understand the morphological characteristics of Aβ and NMI treated samples. The samples from Aβ aggregation inhibition and dissolution studies were used for AFM imaging. 25 μL of sample was drop-casted on freshly cleaved mica substrate. The Aβ samples were allowed to adhere to substrate surface for 15 min, washed with filtered MiliQ water and air dried. The samples were imaged in Scan assist Air mode in Bioscope resolve AFM system (Bruker). The images were processed and analyzed using NanoScope analysis software. […] It has been observed that the oligomers are a highly toxic species compared to Aβ fibrillar aggregates. The ability of NMIs (M3) to inhibit the formation of Aβ oligomers was assessed by dot blot assay. Aβ peptide (10 μM) was incubated with NMIs at 4° C. for 24 h followed by probing with A11 oligomer-specific antibody. […] Native PAGE and western blot analysis was carried out to understand the size distribution of Aβ aggregated species. […] In order to analyse the higher order aggregates not permeable in the gel matrix and the morphological characteristics, Aβ samples were subjected to atomic force microscopy (AFM) imaging.

[2] = target: T4, preformed Aβ fibrillar aggregates (Homo sapiens, UniProt P05067); assay: Dot blot assay of dissolution of preformed Aβ fibrillar aggregates; assay type: biochemical; conditions: Aβ aggregates 10 μM, NMIs 20 μM, 48 h
T4 construct: is a 42 amino acid proteolytic product from the amyloid precursor protein; purchased Invitrogen
T4 sequence (P05067 672-713 limits assumed): as above
Protocol: Aggregation modulation by toxic Aβ aggregates were assessed and were quantified by dot blot assay. Aβ peptide (10 μM) was dissolved in phosphate buffered saline (PBS, 10 mM, pH 7.4), incubated alone and with NMIs (20 μM) at 37° C. for 48 h. For concentration dependent inhibition, 10 μM Aβ peptide was incubated with 1, 2, 5, 10 and 20 μM of NMIs and incubated. Samples for oligomer inhibition studies were prepared by incubating Aβ alone and with NMIs at 4° C. for 24 and subjected to dot blot analysis. For dissolution studies, Aβ peptide alone was incubated in PBS for 48 h to prepare fibrils and then incubated with NMIs further for 48 h. For dot blot experiment, 5 μL of sample was blotted on activated PVDF (polyvinylidene fluoride) membrane in triplicates and air dried. The membrane was blocked with skimmed milk powder for 1 h at room temperature. The blot paper was washed with tris-buffered saline with 0.01% Tween 20 (TBST) three times for 5 min. Blot paper was treated with fibril specific OC primary antibody (Rabbit, 1:1000 dilution) overnight at 4° C. For oligomers blot A11 anti-oligomer antibody (Rabbit 1:1000) was used. Blot was washed thrice with TBST and treated with HRP-conjugated antirabbit secondary antibody (1:5000 dilutions) for 1 h at room temperature. The bolt was washed thrice for 5 min with TBST and developed with ECL reagent (Biorad) and imaged with ChemiDoc BioRad gel documentation system in autoexposure mode. Blots were analyzed and quantified by ImageJ software. The fibrillar aggregates were formed by incubating Aβ peptide (10 μM) in PBS (pH 7.4) at 37° C. for 48 h. The aggregate samples were treated with NMIs (20 μM) for 48 h followed by dot blot analysis. […] These studies confirmed that M3 as the potential candidate to dissolve Aβ fibrillar aggregates to possibly nontoxic species.

[3] = target: T5, Aβ in the presence of Zn (II) (Homo sapiens, UniProt P05067); assay: Zn-dependent Aβ aggregation, native PAGE and western blot; assay type: biochemical; conditions: Aβ 10 μM, Zn (II) 20 μM, NMIs 20 μM, 37° C., 48 h
T5 construct: is a 42 amino acid proteolytic product from the amyloid precursor protein; purchased Invitrogen
T5 sequence (P05067 672-713 limits assumed): as above
Protocol: The samples were prepared by incubating Aβ42 with specific concentration of NMI compounds of present disclosure and metal ions for 48 h and then subjected to 6% native polyacrylamide gel electrophoresis (Native-PAGE) in tris-glycine buffer. The lower molecular weight aggregates permeabilized through the gel and resolved in the gel. Higher molecular aggregates stuck in the upper part of wells and potentially carried in gel. Then the protein was transferred to PVDF membrane for 4 h at cold condition maintained using ice cold transfer buffer and immersing the transfer apparatus in ice. Then the blots were continued similar to dot blots.
The absorbance and fluorescence spectroscopy studies together with mass spectrometry data confirmed the selective Cu (II) or Zn (II) chelation property of M1 and M3. […] Aβ (10 μM) was incubated in the presence of Cu (II) or Zn (II) (20 μM) with NMIs at 37° C. for 48 h and the samples were subjected to native PAGE and western blot analysis. […] Modulation of Zn-dependent Aβ aggregation by M4 was attributed to its two Zn (II) chelation centres. M3 with dopamine and DPA moieties effectively modulated both Cu (II) and Zn (II)-dependent Aβ aggregation. The effect of NMIs on the morphological outcome of metal-dependent Aβ aggregation was visualized by AFM imaging (FIGS. 1E and 1F). Aβ in the presence of Cu (II) and Zn (II) formed dense and thick fibrils.

oligomer inhibition (Aβ oligomers)	interaction with Cu (II) and Zn (II), change in absorbance spectra [1]	inhibition of the formation of Aβ fibrils (Aβ fibrils)	morphology of Aβ sample, aggregation inhibition (Aβ)	dissolution efficiency [2]	Zn-dependent Aβ aggregation [3]	Structure (SMILES)
40%	no significant change in the spectra	~11%	fibrillar structures	25%	–	CN(C)c1ccc2c3c(cccc13)C(=O)N(CCN(Cc1ccccn1)Cc1ccccn1)C2=O [M2, 2-(2-(bis(pyridin-2-ylmethyl)amino)ethyl)-6-(dimethylamino)-1H-benzo[de]isoquinoline-1,3(2H)-dione]
–	no significant change in the spectra	~11%	fibrillar structures	43%	reduce Zn-dependent Aβ aggregation	O=C1c2cccc3c(N(Cc4ccccn4)Cc4ccccn4)ccc(c23)C(=O)N1CCN(Cc1ccccn1)Cc1ccccn1 [M4, 6-(bis(pyridin-2-ylmethyl)amino)-2-(2-(bis(pyridin-2-ylmethyl)amino)ethyl)-1H-benzo[de]isoquinoline-1,3(2H)-dione]
